SMILES strings stand for the structures. “Also recorded” adds a separate entry of the source.

The target of experiment [1] is T1, WT Fyn (Homo sapiens, UniProt P06241).
T1 construct: GST; made in house; host or cells: E. coli DH5α (pGEX-KT)
Conditions: published parent molecule; cited from earlier work.

The test system of experiment [2] is tyrosine kinases of murine lymphocyte cell lysate (CF). The experiment in a line: Screening of nucleotide analogs in murine lymphocyte lysate, anti-phosphotyrosine immunoblot. The format is biochemical. The note with it: 100 μM nucleotide triphosphate, 37° C., five minutes. As to the method:
To identify compounds that would not be accepted as substrates by any existing cellular kinases (53), Applicant screened a panel of synthetic A^*TP analogs in a murine lymphocyte lysate (CF) rich in protein tyrosine kinases (13).
The assays were performed using spleenocytes (8-30 week old male and female C57/B6 mice from the Princeton University Animal Facility) which were isolated and washed in RPMI-1640 medium containing 5% Bovine Calf Serum (BCS), 1% Hepes and DNaseI (1 μg/ml). Red cells were lysed at 4° C. by treatment with 17 mM Tris ammonium chloride (pH 7.2). The cells were hypotonically lysed on ice for ten minutes in 1 mM Hepes (pH 7.4), 5 mM MgCl2, leupeptin (10 μg/ml), aprotinin (10 μg /ml) and 100 μM PMSF according to the method of Fukazawa et al. (51). After vortexing and centrifugation at 500 × g, the supernatant was collected. Cells were stored at 4° C. for twenty minutes to attenuate the basal protein phosphorylation level, after which the buffer was adjusted to 20 mM Hepes (pH 7.4), 10 mM MgCl2 and 1 mM NaF. Sodium vanadate (100 μM) was then added to inhibit the activity of phosphotyrosine phosphatases.
Each nucleotide triphosphate was added to a final concentration of 100 μM to 5×10^6 cell equivalents and incubated at 37° C. for five minutes after which 4 × Laemmli gel loading buffer was added to the cell lysate to quench the reaction. Proteins were separated by 12.5% SDS-PAGE and transferred to Protran BA85 (Schleicher-Schuell). The blot was probed with the anti-phosphotyrosine monoclonal antibody 4G10 (Upstate Biotechnology) and the bound antibody was detected via enhanced chemiluminescence (Pierce) following treatment with HRP-coupled goat anti-mouse antibody (VWR catalog #710133) according to the manufacturer's instructions.
The cell lysate used includes the tyrosine kinases Src, Fyn, Lck, Lyn, Yes, Fgr, Hck, Zap, Syk, Btk, Blk, and other tyrosine kinases present in B and T lymphocytes, macrophages, and follicular dendritic cells (13). Molecular size standards (in kilodaltons) arc indicated.
For orientation: In western blotting, separated proteins are transferred to a membrane and probed.

In the next experiment the target is T2, I338G v-Src (Rous sarcoma virus subgroup A, UniProt P00524, DEL77-225/I338G).
T2 construct: made in house; host or cells: E. coli DH5α (pGEX-KT)
The experiment in a line: biochemical.

In experiment [3] the target is T1, WT Fyn. Nature of the experiment: In vitro kinase inhibition assay. The format is biochemical. Further details: inhibition of Fyn: dose or concentration left out as unconfirmed.
Experiment [4] concerns GST-XD4 (V323A, I338A). Conditions: 100 μM analog, 10 μM [γ-32P]ATP.
Experiment [5] has as its target T3, GST-XD4 (Rous sarcoma virus subgroup A, UniProt P00524, DEL77-225).
T3 construct: contains an intact SH1 catalytic domain but lacks the non-catalytic regulatory SH3 and SH2 domains; made in house; host or cells: E. coli DH5α (pGEX-KT)
The format is biochemical. As to the method:
(§1) Kinetic constants were determined by analysis of Lineweaver-Burk plots of the rate data (64). […] ATP (1000 cpm/pmol) or [γ-^32P] N^6(cyclopentyl)ATP (5000 cpm/pmol) as indicated.

Experiment [6] has as its target T4, GST-XD4 (V323A, I338A) (Rous sarcoma virus subgroup A, UniProt P00524, DEL77-225/I338A/V323A).
T4 construct: contains an intact SH1 catalytic domain but lacks the non-catalytic regulatory SH3 and SH2 domains; made in house; host or cells: E. coli DH5α (pGEX-KT)
The format is biochemical. The note with it: GST-XD4 (V323A, I338A), 1 mM RR-Src, 37° C., pH 8.0. As to the method:
as §1

For experiment [7], the system named is GST-XD4 (V323A, I338A). The format is biochemical, Rous sarcoma virus. How it is done: as §1
Experiment [8] has as its target T3, GST-XD4. Nature of the experiment: Autophosphorylation autoradiogram. The format is biochemical. Conditions: GST-XD4, FIG. 5C lane 3. An excerpt:
(§2) It is even more significant that the new substrate, [γ-^32P]

Experiment [9] concerns the target T4, GST-XD4 (V323A, I338A). The experiment in a line: Autophosphorylation autoradiogram. The note with it: FIG. 5C lane 4. The format is biochemical.
Text: as §2

For experiment [10], the system named is wild-type cellular kinases of murine lymphocyte lysates. The experiment in a line: In vitro kinase reactions with radiolabeled nucleotide in murine lymphocyte lysates. The format is biochemical. Conditions: 100 μM radiolabeled nucleotide, 37° C., ten minutes.
Experimental: To establish that [γ-^32P] N^6(cyclopentyl)ATP is essentially a “dead substrate” for all wild-type cellular kinases, in vitro kinase reactions with [γ-32P] ATP or [γ-^32P] N^6(cyclopentyl)ATP were performed with murine lymphocyte lysates.
ATP or [γ-^32P] N^6(cyclopentyl)ATP (5000 cpm/pmole) added to a final concentration of 100 μM with 5×10^6 cell equivalents and incubated at 37° C. for ten minutes, after which 4 × Laemmli gel loading buffer was added to the cell lysate to quench the reaction. Proteins were separated by 12.5% SDS-PAGE. The gel was soaked in 10% acetic acid, 10% isopropanol for one hour after which it was dried in a gel dryer and exposed to Biomax MS film (Kodak) for one hour.
The target in another experiment is T5, GST-XD4 (I338G) (Rous sarcoma virus subgroup A, UniProt P00524, DEL77-225/I338G).
T5 construct: made in house; host or cells: E. coli DH5α (pGEX-KT)
Nature of the experiment: Autophosphorylation of single mutation v-Src mutants. Conditions: mutant with glycine at position 338. The format is biochemical. From the text: (§3) However, these had only single mutations, at position 338. These were again expressed as GST-XD4 fusion proteins.
(§4) The panels on the right side of FIG. 7 tell an even more interesting story.

In another experiment the target is T6, GST-XD4 (I338S) (Rous sarcoma virus subgroup A, UniProt P00524, DEL77-225/I338S).
T6 construct: made in house
The description is as above. The format is biochemical. The note with it: mutant with serine at position 338.
Text: as §3, §4

The next experiment has as its system PDGFR. Conditions: cited from earlier work.
The target of another experiment is T7, GST-XD4 (I338A) (Rous sarcoma virus subgroup A, UniProt P00524, DEL77-225/I338A).
T7 construct: made in house
The experiment in a line: Autophosphorylation of single mutation v-Src mutants. The format is biochemical. Conditions: mutant with alanine at position 338.
Text: as §3, §4

T1 sequence (P06241 1-534 isoform P06241-2): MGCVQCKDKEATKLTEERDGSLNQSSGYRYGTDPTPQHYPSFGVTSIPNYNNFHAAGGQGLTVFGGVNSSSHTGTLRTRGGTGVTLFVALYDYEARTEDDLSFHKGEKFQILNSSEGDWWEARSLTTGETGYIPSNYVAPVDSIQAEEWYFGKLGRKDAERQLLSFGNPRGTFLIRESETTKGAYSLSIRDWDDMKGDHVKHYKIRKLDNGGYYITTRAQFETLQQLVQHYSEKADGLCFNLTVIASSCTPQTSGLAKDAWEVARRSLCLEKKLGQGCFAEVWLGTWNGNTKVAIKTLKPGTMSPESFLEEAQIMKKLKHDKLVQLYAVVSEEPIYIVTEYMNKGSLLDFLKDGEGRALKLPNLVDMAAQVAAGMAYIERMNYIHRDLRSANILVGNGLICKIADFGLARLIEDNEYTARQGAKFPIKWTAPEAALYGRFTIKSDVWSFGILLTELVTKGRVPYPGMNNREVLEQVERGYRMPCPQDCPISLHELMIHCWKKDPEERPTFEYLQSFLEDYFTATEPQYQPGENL

On to `Cc1ccc(-c2nn(C(C)(C)C)c3ncnc(N)c23)cc1` [PPI, 4-amino-1-tert-butyl-3-(p-methylphenyl)pyrazolo(3,4-d)pyrimidine], for which, at WT Fyn [1], the “inhibition of Fyn (in words)” value is reported as “highly potent (low nM)”.
`O=P(O)(O)OP(=O)(O)OP(=O)(O)OC[C@H]1O[C@@H](n2cnc3c(NOCc4ccccc4)ncnc32)[C@H](O)[C@@H]1O` [Analog 6, N^6(benzyloxy)ATP]: the “level of protein tyrosine phosphorylation (ability to serve as cellular tyrosine kinase substrate)” value (shortened to “level”) in experiment [2] was “little or no protein phosphorylation”.
As for `CC(C)(C)n1nc(-c2ccccc2)c2c(NCC3CCCC3)ncnc21` [Analog 4b, 4-cyclopentylmethylamino-1-tert-butyl-3-phenylpyrazolo[3,4-d]pyrimidine], the “inhibition of I338G v-Src (in words)” value against I338G v-Src is “only poor to moderate inhibition”. Also, the “inhibition of WT Fyn (in words)” value against WT Fyn [3] is on record as “sufficiently orthogonal”.
With `O=P(O)(O)OP(=O)(O)OP(=O)(O)OC[C@H]1O[C@@H](n2cnc3c(NC4CCCCC4)ncnc32)[C@H](O)[C@@H]1O` [Analog 11, N^6(cyclohexyl)ATP], the “relative inhibition of GST-XD4 (V323A, I338A) catalyzed RR-Src phosphorylation” value (“relative inhibition of GST-XD4” for short) with GST-XD4 (V323A, I338A) [4] is given as “almost as well as the wild-type kinase”.
The term kcat denotes the maximal rate divided by the concentration of active sites. Regarding `O=P(O)(O)OP(=O)(O)OP(=O)(O)OCC1OC(n2cnc3c(NC4CCCC4)ncnc32)C(O)C1O` (centres unmarked) [Analog 8, N^6(cyclopentyl)ATP], the “level” value in experiment [2] is listed as “slightly lower level of phosphorylation with wild-type kinases”. For the same compound, at GST-XD4 [5] (wild-type GST-XD4), the “phosphorylation of RR-Src peptide with the nucleotide as phosphate donor” value is recorded as “did not substantially phosphorylate”. Besides, the kcat on GST-XD4 (V323A, I338A) [6] turned out to be 0.05 ± 0.02 min⁻¹. Also, the “kcat/KM of mutant with orthogonal substrate relative to kcat/KM of wild-type kinase with ATP” value with GST-XD4 (V323A, I338A) [7] (lower than wild-type with ATP) worked out at 50 fold. In addition, the “use as phosphodonor for autophosphorylation” value at GST-XD4 [8] is “apparent complete inability”; on GST-XD4 (V323A, I338A) [9] it was “efficiently autophosphorylated”. In addition, in experiment [10], the “radiolabeled phosphoproteins in cell lysate” value is reported as “no radiolabeled phosphoproteins”. Besides, the “utilization as phosphate donor substrate (autophosphorylation)” value is given as “better able to use N^6(cyclopentyl)ATP as substrate than is the mutant with alanine” on GST-XD4 (I338G) and “not able to utilize N6(cyclopentyl)ATP nearly as well as is the mutant with alanine” at GST-XD4 (I338S). The “relative inhibition of GST-XD4” value in the experiment with GST-XD4 (V323A, I338A) [4] is “almost as well as the wild-type kinase”.
Broadly, the IC50 is the concentration that gives 50% inhibition. With `Cc1ccc(NC(=O)c2ccc(CN3CCN(C)CC3)cc2)cc1Nc1nccc(-c2cccnc2)n1` [CGP 57148], the IC50 with PDGFR was […].
In the case of `OCC1OC(n2cnc3c(NOC4CCCC4)ncnc32)C(O)C1O` (centres unmarked) [N^6 cyclopentyloxyadenosine], at WT Fyn [3] (concentrations up), the “inhibition of Fyn” value is on record as “no detectable in vitro inhibition”.
As to `Nc1ncnc2c1ncn2[C@@H]1O[C@H](COP(=O)(O)OP(=O)(O)OP(=O)(O)O)[C@@H](O)[C@H]1O` [ATP, adenosine triphosphate, reference compound], the kcat at GST-XD4 [5] (GST-XD4, 1 mM RR-Src, 37° C., pH 8.0) was 2 ± 0.5 min⁻¹; at GST-XD4 (V323A, I338A) [6] it was 0.8 ± 0.2 min⁻¹. Moreover, the “KM of the mutant for ATP relative to KM of GST-XD4 for ATP” value in the experiment on GST-XD4 (V323A, I338A) [7] (higher in mutant) is recorded as “more than 10 fold”. For the same compound, at GST-XD4 (I338A), the “utilization as phosphate donor substrate (autophosphorylation)” value is “more readily than the mutant with serine; also recorded: better able to use ATP as a substrate than is the mutant with glycine”.
As for `CONc1ncnc2c1ncn2[C@@H]1O[C@H](COP(=O)(O)OP(=O)(O)OP(=O)(O)O)[C@@H](O)[C@H]1O` [Analog 1, N^6(methoxy)ATP], the “level” value in [2] is reported as “some ability to serve as cellular tyrosine kinase substrates”.
Take `CC(C)ONc1ncnc2c1ncn2[C@@H]1O[C@H](COP(=O)(O)OP(=O)(O)OP(=O)(O)O)[C@@H](O)[C@H]1O` [Analog 4, N^6(i-propoxy)ATP]: the “level” value in experiment [2] is on record as “little or no protein phosphorylation”.
`O=P(O)(O)OP(=O)(O)OP(=O)(O)OC[C@H]1O[C@@H](n2cnc3c(NCc4ccccc4)ncnc32)[C@H](O)[C@@H]1O` [Analog 5, N^6(benzyl)ATP]: the “level” value in [2] was “little or no protein phosphorylation”. In addition, the “relative inhibition of GST-XD4” value in the experiment on GST-XD4 (V323A, I338A) [4] is on record as “almost as well as the wild-type kinase”.
For the compound `CCONc1ncnc2c1ncn2[C@@H]1O[C@H](COP(=O)(O)OP(=O)(O)OP(=O)(O)O)[C@@H](O)[C@H]1O` [Analog 2, N^6(ethoxy)ATP], the “level” value in experiment [2] was “some ability to serve as cellular tyrosine kinase substrates”.
As to `CC(C)(C)n1nc(-c2ccccc2)c2c(NCc3ccco3)ncnc21` [Analog 4d, 4-2′-furylmethylamino-1-tert-butyl-3-phenylpyrazolol[3,4-d]pyrimidine], the “inhibition of I338G v-Src (in words)” value against I338G v-Src is reported as “only poor to moderate inhibition”. In addition, on WT Fyn [3], the “inhibition of WT Fyn (in words)” value is on record as “sufficiently orthogonal”.
For the compound `CC(C)(C)n1nc(-c2ccccc2)c2c(NCc3ccccc3)ncnc21` [Analog 4e, 4-benzylamino-1-tert-buty-3-phenylpyrazolo[3,4-d]pyrimidine], the “inhibition of I338G v-Src (in words)” value against I338G v-Src is on record as “only poor to moderate inhibition”. For the same compound, on WT Fyn [3], the “inhibition of WT Fyn (in words)” value was “sufficiently orthogonal”.
Consider `O=P(O)(O)OP(=O)(O)OP(=O)(O)OC[C@H]1O[C@@H](n2cnc3c(NOC4CCCC4)ncnc32)[C@H](O)[C@@H]1O` [Analog 9, N^6(cyclopentyloxy)ATP], for which the “relative inhibition of GST-XD4” value in the experiment with GST-XD4 (V323A, I338A) [4] is listed as “almost as well as the wild-type kinase”.
As to `CC(=O)Nc1ncnc2c1ncn2[C@@H]1O[C@H](COP(=O)(O)OP(=O)(O)OP(=O)(O)O)[C@@H](O)[C@H]1O` [Analog 3, N^6(acetyl)ATP], the “level” value in [2] is on record as “some ability to serve as cellular tyrosine kinase substrates”.

(Values after patent US7049116B2, “Engineered protein kinases which can utilize modified nucleotide triphosphate substrates” (Princeton University, priority 1997, dated 2006).)
